Several values for one entry are separate records, joined by “and”; a condition that tells them apart may be missing. Equal entries are not always repeated. Toxic doses and inconclusive results are not listed. Rule as the data show it: active = T/C of 150% or more; inactive = T/C below 125%.
Tested on: L1210 leukemia ip in BDF1 mice, survival T/C
Assay: NCI In Vivo Anticancer Drug Screen. Data for tumor model L1210 Leukemia (intraperitoneal) in B6D2F1 (BDF1) mice
Settings: endpoint: mean survival time, higher = longer survival
Procedure, shortened: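 Each compound was tested against a transplantable tumor grown in mice. The endpoint was survival, with treated animals benchmarked against vehicle controls as a simple ratio.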

[1] = dose: 100.0 mg/kg/injection, schedule: Q04DX003 (ip), vehicle: Klucel (hydroxypropylcellulose) (HPC)
[2] = dose: 200.0 mg/kg/injection, schedule: Q04DX003 (ip), vehicle: Klucel (hydroxypropylcellulose) (HPC)
[3] = dose: 400.0 mg/kg/injection, schedule: Q04DX003 (ip), vehicle: Klucel (hydroxypropylcellulose) (HPC)
[4] = dose: 100.0 mg/kg/injection, schedule: Q04DX003 (ip), vehicle: saline with Tween-80
[5] = dose: 200.0 mg/kg/injection, schedule: Q04DX003 (ip), vehicle: saline with Tween-80

Measured: T/C

CS(=O)(=O)OCCCCCCOCCCCOCCCCOCCCCCCOS(C)(=O)=O
inactive: dose: 100.0 mg/kg/injection, schedule: Q01DX001 (ip), vehicle: Klucel (hydroxypropylcellulose) (HPC) 92 % of control | dose: 200.0 mg/kg/injection, schedule: Q01DX001 (ip), vehicle: Klucel (hydroxypropylcellulose) (HPC) 93 % of control | dose: 400.0 mg/kg/injection, schedule: Q01DX001 (ip), vehicle: Klucel (hydroxypropylcellulose) (HPC) 93 % of control

CC/C(=N\N=C(N)N)c1ccc(NC(N)=S)cc1
inactive: dose: 5.0 mg/kg/injection, schedule: Q01DX009 (ip), vehicle: saline 100 % of control | dose: 10.0 mg/kg/injection, schedule: Q01DX009 (ip), vehicle: saline 105 % of control | dose: 20.0 mg/kg/injection, schedule: Q01DX009 (ip), vehicle: saline 107 % of control | dose: 25.0 mg/kg/injection, schedule: Q01DX009 (ip), vehicle: saline 107 % of control | dose: 40.0 mg/kg/injection, schedule: Q01DX009 (ip), vehicle: saline 103 % of control | dose: 80.0 mg/kg/injection, schedule: Q01DX009 (ip), vehicle: saline 117 % of control

N#CSCc1ccccc1
inactive: dose: 75.0 mg/kg/injection, schedule: Q01DX001 (ip), vehicle: carboxymethylcellulose (CMC) 118 % of control | [1] 91 % of control | dose: 150.0 mg/kg/injection, schedule: Q01DX001 (ip), vehicle: carboxymethylcellulose (CMC) 98 % of control | [2] 103 % of control | [3] 94 % of control

Cc1cccc(OC(=O)Nc2ccc(C(=O)O)c(O)c2)c1
inactive: dose: 50.0 mg/kg/injection, schedule: Q04DX003 (ip), vehicle: gum acacia 96 % of control and 98 % of control | dose: 100.0 mg/kg/injection, schedule: Q01DX001 (ip), vehicle: gum acacia 104 % of control and 105 % of control | dose: 100.0 mg/kg/injection, schedule: Q01DX009 (ip), vehicle: gum acacia 97 % of control and 88 % of control | dose: 100.0 mg/kg/injection, schedule: Q04DX002 (ip), vehicle: gum acacia 94 % of control and 88 % of control | dose: 100.0 mg/kg/injection, schedule: Q04DX003 (ip), vehicle: gum acacia 101 % of control and 88 % of control | dose: 200.0 mg/kg/injection, schedule: Q01DX001 (ip), vehicle: gum acacia 100 % of control and 107 % of control | dose: 200.0 mg/kg/injection, schedule: Q01DX009 (ip), vehicle: gum acacia 98 % of control and 117 % of control | dose: 200.0 mg/kg/injection, schedule: Q04DX002 (ip), vehicle: gum acacia 95 % of control and 110 % of control | dose: 200.0 mg/kg/injection, schedule: Q04DX003 (ip), vehicle: gum acacia 98 % of control and 101 % of control

CN1c2ccccc2NP1(=S)c1ccccc1 (configuration not stated)
inactive: dose: 100.0 mg/kg/injection, schedule: Q04DX002 (ip), vehicle: saline with Tween-80 90 % of control | dose: 200.0 mg/kg/injection, schedule: Q04DX002 (ip), vehicle: saline with Tween-80 90 % of control | dose: 400.0 mg/kg/injection, schedule: Q04DX002 (ip), vehicle: saline with Tween-80 87 % of control

CCCCCCCCCC(C)CCCCCCC (configuration not stated)
inactive: dose: 100.0 mg/kg/injection, schedule: Q01DX001 (ip), vehicle: saline with Tween-80 103 % of control | dose: 200.0 mg/kg/injection, schedule: Q01DX001 (ip), vehicle: saline with Tween-80 97 % of control | dose: 400.0 mg/kg/injection, schedule: Q01DX001 (ip), vehicle: saline with Tween-80 100 % of control

Cc1cc(=O)n(C)c[n+]1C
inactive: dose: 50.0 mg/kg/injection, schedule: Q01DX001 (ip), vehicle: saline 93 % of control | dose: 50.0 mg/kg/injection, schedule: Q01DX009 (ip), vehicle: saline 106 % of control | dose: 100.0 mg/kg/injection, schedule: Q01DX001 (ip), vehicle: saline 106 % of control | dose: 100.0 mg/kg/injection, schedule: Q01DX009 (ip), vehicle: saline 109 % of control | dose: 200.0 mg/kg/injection, schedule: Q01DX001 (ip), vehicle: saline 100 % of control | dose: 200.0 mg/kg/injection, schedule: Q01DX009 (ip), vehicle: saline 113 % of control | dose: 400.0 mg/kg/injection, schedule: Q01DX001 (ip), vehicle: saline 96 % of control

Nc1nc2c(ncn2-c2cccc(Cl)c2)c(=O)[nH]1
inactive: [4] 95 % of control | [5] 91 % of control

Cc1cccc(CN(CC(=O)O)S(C)(=O)=O)c1
inactive: dose: 100.0 mg/kg/injection, schedule: Q01DX009 (ip), vehicle: other 102 % of control | dose: 100.0 mg/kg/injection, schedule: Q04DX003 (ip), vehicle: other 100 % of control | dose: 200.0 mg/kg/injection, schedule: Q01DX009 (ip), vehicle: other 100 % of control | dose: 200.0 mg/kg/injection, schedule: Q04DX003 (ip), vehicle: other 98 % of control | dose: 400.0 mg/kg/injection, schedule: Q01DX009 (ip), vehicle: other 100 % of control | dose: 400.0 mg/kg/injection, schedule: Q04DX003 (ip), vehicle: other 93 % of control

Cc1cc(Br)ccc1OCC(=O)O
inactive: [1] 96 % of control | [2] 93 % of control | [3] 98 % of control

O=S1(=O)C2CCCC1CCC2
inactive: dose: 10.0 mg/kg/injection, schedule: Q01DX001 (ip), vehicle: saline 98 % of control and 109 % of control | dose: 40.0 mg/kg/injection, schedule: Q01DX001 (ip), vehicle: saline 102 % of control | dose: 75.0 mg/kg/injection, schedule: Q01DX001 (ip), vehicle: saline 109 % of control | dose: 150.0 mg/kg/injection, schedule: Q01DX001 (ip), vehicle: saline 100 % of control | dose: 300.0 mg/kg/injection, schedule: Q01DX001 (ip), vehicle: saline 104 % of control

Cc1c2cc[nH]c(C(F)(F)F)c2cc2c1nc1ccccc12
inactive: dose: 16.0 mg/kg/injection, schedule: Q01DX005 (ip), vehicle: saline 101 % of control | dose: 32.0 mg/kg/injection, schedule: Q01DX005 (ip), vehicle: saline 103 % of control | dose: 64.0 mg/kg/injection, schedule: Q01DX005 (ip), vehicle: saline 103 % of control | dose: 128.0 mg/kg/injection, schedule: Q01DX005 (ip), vehicle: saline 103 % of control

Cc1cc(C)n2nc(N)nc2n1
inactive: dose: 100.0 mg/kg/injection, schedule: Q01DX001 (ip), vehicle: carboxymethylcellulose (CMC) 101 % of control | dose: 200.0 mg/kg/injection, schedule: Q01DX001 (ip), vehicle: carboxymethylcellulose (CMC) 95 % of control | dose: 400.0 mg/kg/injection, schedule: Q01DX001 (ip), vehicle: carboxymethylcellulose (CMC) 95 % of control

CCOC(=O)CCCN(c1sc(C)c(-c2ccccc2)c1C(=O)OCC)S(=O)(=O)c1ccc(C)cc1
inactive: dose: 25.0 mg/kg/injection, schedule: Q01DX009 (ip), vehicle: saline with Tween-80 93 % of control | dose: 50.0 mg/kg/injection, schedule: Q01DX009 (ip), vehicle: saline with Tween-80 93 % of control | dose: 50.0 mg/kg/injection, schedule: Q04DX003 (ip), vehicle: saline with Tween-80 98 % of control | [4] 104 % of control | dose: 200.0 mg/kg/injection, schedule: Q01DX009 (ip), vehicle: saline with Tween-80 90 % of control | [5] 97 % of control | dose: 400.0 mg/kg/injection, schedule: Q01DX009 (ip), vehicle: saline with Tween-80 90 % of control | dose: 400.0 mg/kg/injection, schedule: Q04DX003 (ip), vehicle: saline with Tween-80 87 % of control

CCCCCCCCCCCCCCCCCCn1cnc2c(N)ncnc21
inactive: dose: 12.5 mg/kg/injection, schedule: Q01DX005 (ip), vehicle: other 105 % of control | dose: 25.0 mg/kg/injection, schedule: Q01DX005 (ip), vehicle: other 97 % of control | dose: 50.0 mg/kg/injection, schedule: Q01DX005 (ip), vehicle: other 102 % of control | dose: 100.0 mg/kg/injection, schedule: Q01DX005 (ip), vehicle: other 103 % of control | dose: 200.0 mg/kg/injection, schedule: Q01DX005 (ip), vehicle: other 108 % of control

Reference: PubChem BioAssay AID248 (DTP/NCI, 2004)
